Test results reported in article PMC5063900, “A phase 1 study of the safety, tolerability, pharmacokinetics, and pharmacodynamics of TAK-063, a selective PDE10A inhibitor” (Psychopharmacology, 2016).
Marks after values point to notes of the source that are not given here.

Assay: Plasma and urine pharmacokinetics after single oral dose under fasting conditions
Assay type: in vivo, human
Conditions: for AUC(0-inf) / C max / CL/F (oral clearance) / T 1/2 / Vz/F (volume of distribution) / T max / CL/F / Vz/F: plasma
Method: Healthy Japanese and non-Japanese subjects between 18 and 55 years of age were recruited to participate in the study. Criteria for exclusion included prior treatment with any investigational compound within 30 days of the first TAK-063 dose, a positive test for drugs of abuse or nicotine, and an increased risk for suicide. Subjects were randomized into 1 of 6 dose cohorts (3, 10, 30, 100, 300, and 1000 mg), with each cohort containing 11 TAK-063 subjects (five Japanese, six non-Japanese) and three placebo subjects (one Japanese, two non-Japanese) receiving a single dose under fasting conditions. Following a washout period of 7 days, subjects in cohort 3 (100 mg) received the same dose (100 mg) but under fed conditions. Serial plasma and urine samples were collected from all subjects prior to dosing and at specific time points or intervals up to 96 h postdose. Pharmacokinetic samples were processed immediately and frozen at −20 °C as duplicate sets. Plasma concentrations of TAK-063 and its metabolite M-I were subsequently measured by validated liquid chromatography-tandem mass spectrometry with a validated range of 0.5 to 1000 ng/mL for both analytes. The PK parameters analyzed for TAK-063 and its metabolite M-I in plasma and urine included area under the plasma concentration-time curve from time 0 to infinity (AUC (0-inf)), maximum observed plasma concentration (C max), time to reach C max (T max), terminal elimination half-life (T 1/2), oral clearance (CL/F), volume of distribution (Vz/F), and renal clearance (CLr). Metabolite-to-parent ratios were estimated from C max and AUC (0-inf) data. All statistical analyses were generated using SAS Version 9.2 (SAS, Cary, NC, USA). The PK parameters were derived using non-compartmental methods with WinNonlin Enterprise Version 6.3 (Pharsight Corp., Mountain View, CA, USA). Frequency or descriptive statistics were used for summary of data. Where indicated, percent coefficient of variation was included in the summary of continuous data. All statistical tests were 2-tailed at α = 0.05 level for significance unless otherwise stated. A power model was used to evaluate dose proportionality by race for fasted subjects; in the event of no observed race effect, dose proportionality was assessed for all subjects. To evaluate the food effect, a paired t test was performed on T max and natural log-transformed C max, and AUCs. An ANCOVA model with baseline scores and race as covariates was used to assess the effects of TAK-063 on CNSVS domain scores.

[1] = Japanese subjects, TAK-063 3 mg (n = 5), arithmetic mean
[2] = Japanese subjects, TAK-063 10 mg (n = 5), arithmetic mean
[3] = Japanese subjects, TAK-063 30 mg (n = 5), arithmetic mean
[4] = Japanese subjects, TAK-063 100 mg (n = 4), arithmetic mean
[5] = Japanese subjects, TAK-063 100 mg (n = 5; TAK-063 n = 4), arithmetic mean
[6] = Japanese subjects, TAK-063 300 mg (n = 4), arithmetic mean
[7] = Japanese subjects, TAK-063 300 mg (n = 5; TAK-063 n = 4), arithmetic mean
[8] = Japanese subjects, TAK-063 1000 mg (n = 5), arithmetic mean
[9] = fasting, all subjects, TAK-063 3 mg (n = 11), arithmetic mean (% CV)
[10] = fasting, all subjects, TAK-063 3 mg (n = 11; M-I n = 10), arithmetic mean (% CV)
[11] = fasting, all subjects, TAK-063 10 mg (n = 11), arithmetic mean (% CV)
[12] = fasting, all subjects, TAK-063 30 mg (n = 11), arithmetic mean (% CV)
[13] = fasting, all subjects, TAK-063 100 mg (n = 9), arithmetic mean (% CV)
[14] = fasting, all subjects, TAK-063 100 mg (n = 11; TAK-063 n = 9), arithmetic mean (% CV)
[15] = fasting, all subjects, TAK-063 300 mg (n = 8), arithmetic mean (% CV)
[16] = fasting, all subjects, TAK-063 300 mg (n = 11; TAK-063 n = 8), arithmetic mean (% CV)
[17] = fasting, all subjects, TAK-063 1000 mg (n = 11), arithmetic mean (% CV)
[18] = non-Japanese subjects, TAK-063 3 mg (n = 6), arithmetic mean
[19] = non-Japanese subjects, TAK-063 3 mg (n = 6; M-I n = 5), arithmetic mean
[20] = non-Japanese subjects, TAK-063 10 mg (n = 6), arithmetic mean
[21] = non-Japanese subjects, TAK-063 30 mg (n = 6), arithmetic mean
[22] = non-Japanese subjects, TAK-063 100 mg (n = 5), arithmetic mean
[23] = non-Japanese subjects, TAK-063 100 mg (n = 6; TAK-063 n = 5), arithmetic mean
[24] = non-Japanese subjects, TAK-063 300 mg (n = 4), arithmetic mean
[25] = non-Japanese subjects, TAK-063 300 mg (n = 6; TAK-063 n = 4), arithmetic mean
[26] = non-Japanese subjects, TAK-063 1000 mg (n = 6), arithmetic mean

## COc1cn(-c2ccc(-n3cccn3)cc2F)nc(-c2ccnn2-c2ccccc2)c1=O [TAK-063]
333-fold increase in dose (3 to 1000 mg), fasting
  Increase in AUC over the dose range: up to 26 fold
[1]
  AUC(0-inf): 250.3 ng·h/mL
  C max: 16.1 ng/mL
  CL/F (oral clearance): 12.5 L/h
  T 1/2: 15.9 h
  Vz/F (volume of distribution): 269.5 L
Japanese subjects, TAK-063 3 mg (n = 5), median
  T max: 4.0 h
[2]
  AUC(0-inf): 659.2 ng·h/mL
  C max: 30.2 ng/mL
  CL/F (oral clearance): 15.8 L/h
  T 1/2: 18.2 h
  Vz/F (volume of distribution): 412.2 L
Japanese subjects, TAK-063 10 mg (n = 5), median
  T max: 4.0 h
[3]
  AUC(0-inf): 1027.3 ng·h/mL
  C max: 55.7 ng/mL
  CL/F (oral clearance): 35.2 L/h
  T 1/2: 17.8 h
  Vz/F (volume of distribution): 889.4 L
Japanese subjects, TAK-063 30 mg (n = 5), median
  T max: 4.0 h
[4]
  AUC(0-inf): 1459.1 ng·h/mL
  T 1/2: 20.7 h
Japanese subjects, TAK-063 100 mg (n = 5), arithmetic mean
  C max: 89.9 ng/mL
Japanese subjects, TAK-063 100 mg (n = 5), median
  T max: 3.0 h
[5]
  CL/F (oral clearance): 75.8 L/h
  Vz/F (volume of distribution): 2288.5 L
[6]
  AUC(0-inf): 1636.0 ng·h/mL
  T 1/2: 20.3 h
Japanese subjects, TAK-063 300 mg (n = 5), arithmetic mean
  C max: 98.2 ng/mL
Japanese subjects, TAK-063 300 mg (n = 5), median
  T max: 4.0 h
[7]
  CL/F (oral clearance): 212.8 L/h
  Vz/F (volume of distribution): 6409.8 L
[8]
  AUC(0-inf): 4931.4 ng·h/mL
  C max: 264.0 ng/mL
  CL/F (oral clearance): 233.8 L/h
  T 1/2: 11.7 h
  Vz/F (volume of distribution): 3953.4 L
Japanese subjects, TAK-063 1000 mg (n = 5), median
  T max: 4.0 h
[9]
  C max: 11.8 (51) ng/mL
  CL/F (oral clearance): 14.0 (48) L/h
  Vz/F (volume of distribution): 407.0 (64) L
fasting, all subjects, TAK-063 3 mg (n = 11), median (minimum, maximum)
  T max: 4.0 (2.0, 24.0) h
[10]
  AUC(0-inf): 244.9 (32) ng·h/mL
  T 1/2: 20.4 (48) h
[11]
  AUC(0-inf): 576.7 (29) ng·h/mL
  C max: 26.7 (34) ng/mL
  CL/F (oral clearance): 18.7 (30) L/h
  T 1/2: 19.9 (18) h
  Vz/F (volume of distribution): 529.5 (29) L
fasting, all subjects, TAK-063 10 mg (n = 11), median (minimum, maximum)
  T max: 4.0 (2.0, 16.0) h
[12]
  AUC(0-inf): 1003.6 (42) ng·h/mL
  C max: 46.9 (61) ng/mL
  CL/F (oral clearance): 33.1 (27) L/h
  T 1/2: 20.4 (30) h
  Vz/F (volume of distribution): 954.8 (33) L
fasting, all subjects, TAK-063 30 mg (n = 11), median (minimum, maximum)
  T max: 4.0 (3.0, 16.0) h
[13]
  AUC(0-inf): 1406.8 (38)^c ng·h/mL
  T 1/2: 24.6 (37)^c h
fasting, all subjects, TAK-063 100 mg (n = 11), arithmetic mean (% CV)
  C max: 80.5 (48) ng/mL
fasting, all subjects, TAK-063 100 mg (n = 11), median (minimum, maximum)
  T max: 3.0 (1.5, 6.0) h
[14]
  CL/F (oral clearance): 80.3 (35)^c L/h
  Vz/F (volume of distribution): 2802.2 (46)^c L
[15]
  AUC(0-inf): 1900.8 (39)^d ng·h/mL
  T 1/2: 20.2 (26)^d h
fasting, all subjects, TAK-063 300 mg (n = 11), arithmetic mean (% CV)
  C max: 100.3 (18) ng/mL
fasting, all subjects, TAK-063 300 mg (n = 11), median (minimum, maximum)
  T max: 4.0 (1.9, 8.0) h
[16]
  CL/F (oral clearance): 185.9 (48)^d L/h
  Vz/F (volume of distribution): 5570.7 (57)^d L
[17]
  AUC(0-inf): 5788.1 (81) ng·h/mL
  C max: 245.8 (34) ng/mL
  CL/F (oral clearance): 232.0 (42) L/h
  T 1/2: 14.6 (43) h
  Vz/F (volume of distribution): 5277.2 (81) L
fasting, all subjects, TAK-063 1000 mg (n = 11), median (minimum, maximum)
  T max: 4.0 (2.0, 12.0) h
[18]
  C max: 8.2 ng/mL
  CL/F: 15.2 L/h
  Vz/F: 521.6 L
non-Japanese subjects, TAK-063 3 mg (n = 6), median
  T max: 5.0 h
[19]
  AUC(0-inf): 240.4 ng·h/mL
  T 1/2: 24.2 h
[20]
  AUC(0-inf): 507.9 ng·h/mL
  C max: 23.8 ng/mL
  CL/F: 21.2 L/h
  T 1/2: 21.3 h
  Vz/F: 627.3 L
non-Japanese subjects, TAK-063 10 mg (n = 6), median
  T max: 5.0 h
[21]
  AUC(0-inf): 983.9 ng·h/mL
  C max: 39.5 ng/mL
  CL/F: 31.4 L/h
  T 1/2: 22.6 h
  Vz/F: 1009.2 L
non-Japanese subjects, TAK-063 30 mg (n = 6), median
  T max: 5.0 h
[22]
  AUC(0-inf): 1364.9 ng·h/mL
  T 1/2: 27.8 h
non-Japanese subjects, TAK-063 100 mg (n = 6), arithmetic mean
  C max: 72.7 ng/mL
non-Japanese subjects, TAK-063 100 mg (n = 6), median
  T max: 3.5 h
[23]
  CL/F: 84.0 L/h
  Vz/F: 3213.2 L
[24]
  AUC(0-inf): 2165.7 ng·h/mL
  T 1/2: 20.0 h
non-Japanese subjects, TAK-063 300 mg (n = 6), arithmetic mean
  C max: 102.1 ng/mL
non-Japanese subjects, TAK-063 300 mg (n = 6), median
  T max: 3.5 h
[25]
  CL/F: 159.0 L/h
  Vz/F: 4731.5 L
[26]
  AUC(0-inf): 6502.0 ng·h/mL
  C max: 230.7 ng/mL
  CL/F: 230.6 L/h
  T 1/2: 17.0 h
  Vz/F: 6380.3 L
non-Japanese subjects, TAK-063 1000 mg (n = 6), median
  T max: 4.0 h
urine, Japanese subjects, TAK-063 30 mg (n = 5), arithmetic mean
  CLr (renal clearance): 4.0 mL/h
urine, Japanese subjects, TAK-063 100 mg (n = 5), arithmetic mean
  CLr (renal clearance): 7.9 mL/h
urine, Japanese subjects, TAK-063 300 mg (n = 5), arithmetic mean
  CLr (renal clearance): 5.9 mL/h
urine, Japanese subjects, TAK-063 1000 mg (n = 5), arithmetic mean
  CLr (renal clearance): 6.8 mL/h
urine, fasting
  Renal elimination: negligible
urine, fasting, all subjects, TAK-063 30 mg (n = 11), arithmetic mean (% CV)
  CLr (renal clearance): 2.4 (123) mL/h
urine, fasting, all subjects, TAK-063 100 mg (n = 11), arithmetic mean (% CV)
  CLr (renal clearance): 5.9 (78) mL/h
urine, fasting, all subjects, TAK-063 300 mg (n = 11), arithmetic mean (% CV)
  CLr (renal clearance): 6.1 (63) mL/h
urine, fasting, all subjects, TAK-063 1000 mg (n = 11), arithmetic mean (% CV)
  CLr (renal clearance): 6.8 (56) mL/h
urine, non-Japanese subjects, TAK-063 30 mg (n = 6), arithmetic mean (% CV)
  CLr: 1.1 (179) mL/h
urine, non-Japanese subjects, TAK-063 100 mg (n = 6), arithmetic mean (% CV)
  CLr: 4.2 (84) mL/h
urine, non-Japanese subjects, TAK-063 300 mg (n = 6), arithmetic mean (% CV)
  CLr: 6.2 (63) mL/h
urine, non-Japanese subjects, TAK-063 1000 mg (n = 6), arithmetic mean (% CV)
  CLr: 6.8 (61) mL/h
